Source: patent publication US20120295838A1, “Selective poly-substituted glycine antibiotics and related compositions” (priority 2008, published 2012)
≈ marks a conversion by molar mass, not a printed value. Read-outs that look alike come from different tables or passages of the source. Numbered stars: 1 amine (or outer) side, 2 acyl side, 3 side chain; on linkers, the order of the positions; unused ones are H or OH. Square brackets hold non-standard residues; d marks the D form. Ends that are not written are not given here. Peptide text beside a SMILES is read from it. X1 = CC(C)[C@H](C)N(CC(=O)[*:2])[*:1]; Nspe = C[C@H](NCC(=O)O)c1ccccc1; Nphe = O=C(O)CNCc1ccccc1; Nlys = NCCCCNCC(=O)O

Legend:
Type in all cases: cell-based
[1] = system: Enterobacter aerogenes ATCC 35029; conditions: for Selectivity ratio (SR): Table 7B, 10% hemolytic dose divided by MIC
Procedure: (§1) Antibacterial assays. MICs were determined according to CLSI M7-A6 protocols in a 96-well microtiter plate. In test wells, 50 uL bacterial inoculum (5×10^5 CFU/ml) in Mueller-Hinton broth (MHB) was added to 50 μL peptoid solution in MHB (prepared by 1:2 serial dilutions). Positive controls contained 50 μL inoculum and 50 μL MHB without peptoid. […] MIC values reported were reproducible between three independent experimental replicates, each consisting of two parallel trials. Broad-spectrum antimicrobial susceptibility testing was performed against BSL2 pathogens by Nova Biologicals, Inc. (Conroe, Tex.).
(§2) Broad-spectrum antibacterial assays. MICs of compounds were determined by microdilution procedure in Mueller-Hinton broth (MHB) in accordance with CLSI M7-A6 protocols in a manner similar to that described for the screen antibacterial assays. Inoculated microtiter plates were incubated at 35° C. for 24 hours prior to the result being recorded. Four ATCC strains that were used as standards are recommended by CLSI: Pseudomonas aeruginosa ATCC 27853, Escherichia coli ATCC 25922, Staphylococcus aureus ATCC 29213 and Enterococcus faecalis ATCC 29212. Other strains from the ATCC collection include Proteus vulgaris ATCC 49132, Proteus mirabilis ATCC 35659, Klebsiella pneumoniae ATCC 33495, Enterobacter aerogenes ATCC 35029 and Serratia marcescens ATCC 13880. S. aureus NRS100 (COL) is a well characterized methicillian-resistant S. aureus (MRSA) strain. The strains S. aureus VAN1 and S. aureus VAN2, vancomycin-resistant MRSA strains that were isolated in Michigan and Pennsylvania, were the first vancomycin-resistant strains clinically isolated. S. aureus NRS 119 and S. aureus NRS 120 are linezolid-resistant isolates from the Network on Antimicrobial Resistance in S. aureus (NARSA) collection. E. faecalis 99 and E. faecium 106 are vancomycin-resistant enterococcal strains.

[2] = system: Enterococcus faecalis 99; conditions: for Selectivity ratio (SR): Table 7B, 10% hemolytic dose divided by MIC
Procedure: as §1, §2

[3] = system: Enterococcus faecalis ATCC 29212; conditions: for Selectivity ratio (SR): Table 7B, 10% hemolytic dose divided by MIC
Procedure: as §1, §2

[4] = system: Enterococcus faecium 106; conditions: for Selectivity ratio (SR): Table 7B, 10% hemolytic dose divided by MIC
Procedure: as §1, §2

[5] = system: Escherichia coli ATCC 25922; conditions: for Selectivity ratio (SR): Table 7B, 10% hemolytic dose divided by MIC
Procedure: as §1, §2

[6] = system: Klebsiella pneumoniae ATCC 33495; conditions: for Selectivity ratio (SR): Table 7B, 10% hemolytic dose divided by MIC
Procedure: as §1, §2

[7] = system: Proteus vulgaris ATCC 49132; conditions: for Selectivity ratio (SR): Table 7B, 10% hemolytic dose divided by MIC
Procedure: as §1, §2

[8] = system: Pseudomonas aeruginosa ATCC 27853; conditions: for Selectivity ratio (SR): Table 7B, 10% hemolytic dose divided by MIC
Procedure: as §1, §2

[9] = system: Staphylococcus aureus ATCC 29213; conditions: for Selectivity ratio (SR): Table 7B, 10% hemolytic dose divided by MIC
Procedure: as §1, §2

[10] = system: Staphylococcus aureus NRS100 (COL); conditions: for Selectivity ratio (SR): Table 7B, 10% hemolytic dose divided by MIC, S. aureus NRS100 (COL)
Procedure: as §1, §2

[11] = system: Staphylococcus aureus NRS119; conditions: for Selectivity ratio (SR): Table 7B, 10% hemolytic dose divided by MIC, S. aureus NRS119
Procedure: as §1, §2

[12] = system: Staphylococcus aureus NRS120; conditions: for Selectivity ratio (SR): Table 7B, 10% hemolytic dose divided by MIC, S. aureus NRS120
Procedure: as §1, §2

[13] = system: Staphylococcus aureus VAN1; conditions: for Selectivity ratio (SR): Table 7B, 10% hemolytic dose divided by MIC, S. aureus VAN1
Procedure: as §1, §2

[14] = system: Staphylococcus aureus VAN2; conditions: for Selectivity ratio (SR): Table 7B, 10% hemolytic dose divided by MIC, S. aureus VAN2
Procedure: as §1, §2

[15] = system: Proteus mirabilis ATCC 35659; assay: Broad-spectrum antibacterial MIC; conditions: Table 7B; 10% hemolytic dose divided by MIC; P. mirabilis ATCC 35659
Procedure: as §1, §2

[16] = system: Serratia marcescens ATCC 13880; assay: Broad-spectrum antibacterial MIC; conditions: Table 7B; 10% hemolytic dose divided by MIC; S. marcescens ATCC 13880
Procedure: as §1, §2

| Compound | Selectivity ratio (SR) ([1]; E. aerogenes ATCC 35029) | Selectivity ratio (SR) ([2]; E. faecalis 99) | Selectivity ratio (SR) ([3]; E. faecalis ATCC 29212) | Selectivity ratio (SR) ([4]; E. faecium 106) | Selectivity ratio (SR) ([5]; E. coli ATCC 25922) | Selectivity ratio (SR) ([6]; K. pneumoniae ATCC 33495) | Selectivity ratio (SR) ([7]; P. vulgaris ATCC 49132) | Selectivity ratio (SR) ([8]; P. aeruginosa ATCC 27853) | Selectivity ratio (SR) ([9]; S. aureus ATCC 29213) | Selectivity ratio (SR) [10] | Selectivity ratio (SR) [11] | Selectivity ratio (SR) [12] | Selectivity ratio (SR) [13] | Selectivity ratio (SR) [14] | Selectivity ratio (SR) [15] | Selectivity ratio (SR) [16] | further results |
| --- | --- | --- | --- | --- | --- | --- | --- | --- | --- | --- | --- | --- | --- | --- | --- | --- | --- |
| CC(C)[C@H](C)N(CC(=O)N(CC(=O)N(CCCCN)CC(=O)N(CC(=O)N(CC(=O)N(CCCCN)CC(=O)N(CC(=O)N(CC(=O)N(CCCCN)CC(=O)N(CC(=O)N(CC(N)=O)[C@@H](C)c1ccccc1)[C@@H](C)C(C)C)[C@@H](C)c1ccccc1)[C@@H](C)C(C)C)[C@@H](C)c1ccccc1)[C@@H](C)C(C)C)[C@@H](C)c1ccccc1)C(=O)CNCCCCN [1-Nsdp2,5,8,11, H-(Nlys-Nsdp-Nspe)4-NH2] (H-[Nlys][X1][Nspe][Nlys][X1][Nspe][Nlys][X1][Nspe][Nlys][X1][Nspe]-NH2) | 5.8 | 2.9 | 23 | 46 | 23 | 23 | 5.8 | 12 | 23 | 23 | 12 | 23 | 23 | 23 | <1.5 | <1.5 | MIC ([1]; ATCC 35029): 32 µg/mL (≈ 19 µM); MIC [2]; 99: 64 µg/mL (≈ 38 µM); MIC ([3]; ATCC 29212): 8 µg/mL (≈ 4.75 µM); MIC [4]; 106: 4 µg/mL (≈ 2.38 µM); MIC ([5]; ATCC 25922): 8 µg/mL (≈ 4.75 µM); MIC ([6]; ATCC 33495): 8 µg/mL (≈ 4.75 µM); MIC ([7]; ATCC 49132): 32 µg/mL (≈ 19 µM); MIC ([8]; ATCC 27853): 16 µg/mL (≈ 9.51 µM); MIC ([9]; ATCC 29213): 8 µg/mL (≈ 4.75 µM); MIC ([10]; NRS100 (COL)): 8 µg/mL (≈ 4.75 µM); MIC ([11]; NRS119): 16 µg/mL (≈ 9.51 µM); MIC ([12]; NRS120): 16 µg/mL (≈ 9.51 µM); MIC ([13]; VAN1): 8 µg/mL (≈ 4.75 µM); MIC ([14]; VAN2): 8 µg/mL (≈ 4.75 µM) |
| NCCCCNCC(=O)N(CC(=O)N(CC(=O)N(CCCCN)CC(=O)N(CC(=O)N(CC(=O)N(CCCCN)CC(=O)N(CC(=O)N(CC(=O)N(CCCCN)CC(=O)N(CC(=O)N(CC(N)=O)Cc1ccccc1)Cc1ccccc1)Cc1ccccc1)Cc1ccccc1)Cc1ccccc1)Cc1ccccc1)Cc1ccccc1)Cc1ccccc1 [1achiral, H-(Nlys-Npm-Npm)4-NH2] (H-[Nlys][Nphe][Nphe][Nlys][Nphe][Nphe][Nlys][Nphe][Nphe][Nlys][Nphe][Nphe]-NH2) | 2.4 | 4.9 | 19 | 79 | 19 | 39 | 9.8 | 19 | 39 | 39 | 19 | 19 | 39 | 39 | <2.4 | 2.4 |  |
| GIGKFLKKAKKFGKAFVKILKK-NH2 [pexiganan, reference compound] | 5.7 | 1.4 | 5.7 | 46 | 23 | 23 | 5.7 | 46 | 5.7 | 11 | 2.8 | 2.8 | 11 | 23 | <1.4 | <1.4 | MIC ([1]; Table 7A, E. aerogenes ATCC 35029): 32 µg/mL; MIC ([2]; Table 7A, E. faecalis 99): 128 µg/mL; MIC ([3]; Table 7A, E. faecalis ATCC 29212): 32 µg/mL; MIC ([4]; Table 7A, E. faecium 106): 4 µg/mL; MIC ([5]; Table 7A, E. coli ATCC 25922): 8 µg/mL; MIC ([6]; Table 7A, K. pneumoniae ATCC 33495): 8 µg/mL; MIC ([7]; Table 7A, P. vulgaris ATCC 49132): 32 µg/mL; MIC ([8]; Table 7A, P. aeruginosa ATCC 27853): 4 µg/mL; MIC ([9]; Table 7A, S. aureus ATCC 29213): 32 µg/mL; MIC ([10]; Table 7A, S. aureus NRS100 (COL) (MRSA)): 16 µg/mL; MIC ([11]; Table 7A, S. aureus NRS119 (linezolid-resistant)): 64 µg/mL; MIC ([12]; Table 7A, S. aureus NRS120 (linezolid-resistant)): 64 µg/mL; MIC ([13]; Table 7A, S. aureus VAN1 (MRSA, vancomycin-resistant)): 16 µg/mL; MIC ([14]; Table 7A, S. aureus VAN2 (MRSA, vancomycin-resistant)): 8 µg/mL |
